Patent publication US5985926A, “Method for inhibiting intracellular viral replication” (Cell Therapeutics, Inc., priority 1997, dated 1999)
pIC50: −log10 of the molar value.

Experiments:
[1] = test system: HIV-1 strain JR-CSF in PBL; test: HIV-1 p24 antigen expression in acutely infected peripheral blood lymphocytes (PBL); format: cell-based, HIV-1; human cells; settings: Human immunodeficiency virus 1, Lymphocyte, clinical isolate
Procedure: FIG. 17 illustrates a dose response curves of CT2576 on constitutive, TNF-α, and IL-6-mediated expression of HIV-1 in a chronically infected U1 cell line (left Y-axis) and of CT3537 on HIV expression in PBL acutely infected with the JR-CSF primary isolate (right Y-axis). U1 cells were incubated for four days after the addition of CT2576 with or without TNF-α (20 pg/ml) or IL-6 (1 ng/ml). PBL were inoculated with HIV at 10 ng virus/10^6 cells/well and incubated with various concentrations of CT3537 for 7 days. Each data point represents the average expression levels of HIV-1 p24-antigen in the cell supernatants measured by ELISA from triplicate samples with error bar indicating the SD.
Stable cell lines 293tar, 293tat and 293tat2 were generated by transfections using conditions described in (Tate et al., FASEB J. 4:227-231, 1990) with the plasmid pHIV.AP alone or along with either pHIV.tat or pSV2tat72, respectively. The assay of HIV-1 p24 antigen expression in the chronically HIV-1-infected promonocytic line U1 after 4 days and in acutely infected peripheral blood lymphocytes (PBL) after 7 days were described (Peterson et al., J. Clin. Invest. 89:574-580, 1992, and Brighty et al., Proc Natl. Acad. Sci. USA 88:7802-7805, 1991). […]

[2] = test system: NFκB; test: NFκB activation in 293tat cells, electrophoretic mobility shift assay; format: cell-based, human; settings: CT2576 12 μM, TNF-α 40 ng/ml or IL-1β 1 ng/ml
Procedure: Nuclear extracts (A) from 293tat cells were tested by EMSA for activation of NFκB. A radiolabeled 40-mer covering the NFκB sequences in the HIV promoter was used as a probe. Cells were incubated with CT2576 at 12 μM, human TNF-α at 40 ng/ml or IL-1β at 1 ng/ml, or pre-incubated for 30 min. with CT2576 and then stimulated with TNF-α or IL-1β for 18 hr prior to making extracts. RNA was extracted from 293tat cells (B) after treatment with CT2576 without or with TNF-α or IL-1β for 18 hr. Northern blots analysis were performed using probes derived from AP cDNA and G3PDH cDNA as a control for normalization of mRNA level. AP activity was determined in cell supernatants from the various samples.
NFκB binding activity in nuclear extracts (Dignam et al., Nucleic Acids Res. 11:1475-1489, 1983) of cells was measured by electrophoretic mobility-shift assay (EMSA) (Carthew et al., Cell 43:439-448, 1985) using 5'-labeled double-stranded synthetic DNA with two NF-κB motifs. Northern blot analysis was performed with total RNA run on 1% agarose/formaldehyde gel and probed with ^32 P-labeled cDNA of AP and glyceraldehyde-3-phosphate dehydrogenase (G3PDH).

[3] = test system: PA (phosphatidic acid) formation in tat-transfected and tar-transfected cells; test: PA mass / myrPA formation in serum-stimulated EB293, 293tat and 293tar cells; format: cell-based, human
Procedure: Transformed and serum-stimulated cells were measured for total PA mass according to the methods described herein. […] The columns in FIG. 18 represent: (1) EB293 cells plus serum, (2) EB293 cells plus serum plus CT3556 (10 μM.), (3) 293tat cells plus serum, (4) 293tat cells plus serum plus CT3556 (10 μM.), (5) 293tar cells plus serum, and (6) 293tar cells plus serum plus CT3556 (10 μM.).
This procedure begins with those cells that would be normally infected with a virus, such as a retrovirus. However, it is not necessary to utilize a cell line containing a retroviral genome, such as U1 cells. In view of the necessity to utilize containment facilities when using an infected cell line, it is preferable to utilize a macrophage cell line that is not infected. Examples of appropriate macrophage cell lines include, U937, THP1, U1, and P288s (available from standard sources, such as ATCC). The cells are stimulated with a stimulant with or without a candidate drug. Examples of stimulants include 3-5% serum, such as fetal calf serum, or tumor necrosis factor (TNF) (e.g., 20 ng/ml) both of which are standard laboratory reagents. After a time course (within 5 minutes, preferably within 1 minute), the cells are immersed in ice cold methanol to stop any cellular signaling reactions.
One must first quantitatively and qualitatively separate PAs from the other lipids found in serum by a chemical extraction of lipids and high performance liquid chromatography (HPLC) to separate and detect PAs. Chemical extraction can be accomplished, for example, by the method of Bligh et al. (Canadian J. Biochem. Physiol. 37:911-917, 1959) or that of Folch et al. (J. Biol. Chem. 226:497-509, 1957). Briefly, the method of Bligh et al. involves an organic extraction of lipids from biological tissue homogenates or fluids. One volume of sample and three volumes of methanol:chloroform (2:1) are vigorously shaken for 2 min. One volume of chloroform is added and then shaken vigorously for 30 sec. One volume of water is added and then shaken vigorously for 30 sec. The mixture is filtered and the upper aqueous layer is discarded. The lower organic layer contains a mixture of lipid classes. The method of Folch et al. involves the extraction of lipids from biological tissue homogenates or body fluids. One volume of sample plus 20 volumes of chloroform:methanol (2:1) are vigorously shaken for 2 min. The mixture is filtered and an amount of 0.1 N KCl equal to 20% of the extraction mixture volume is added and the mixture is shaken vigorously for 2 min. The aqueous and organic phases are allowed to separate. The upper aqueous layer is discarded. The lower organic layer contains a mixture of lipid classes. Free fatty acids and neutral lipids can be separated from phospholipids by normal phase high performance liquid chromatography (HPLC) by modifying the method of Van Kessel et al. (Biochim et Biophys Acta 486:524-530, 1977). This method involves separation of lipids into their major classes by normal phase (silica) high performance liquid chromatography (HPLC). A 5 micron, 25 cm×0.45 cm silica HPLC column is connected to a binary solvent delivery system followed with a UV detector. The lipid sample is injected on the column and a solvent gradient is run at 1.0 ml/min. […]
Transformed and serum-stimulated cells were measured for total PA mass according to the methods described herein. […]

[4] = test system: 293-EBNA cells

SMILES	pIC50 [1]	activation of NFκB [2]	inhibition of myrPA formation in stimulated cells ([3]; 10 μM, tat-transfected cells stimulated with serum)	total PA mass, dose response ([3]; EB293 cells with tat expression plasmid, serum, 0 to one minute (FIG. 20))	effect on cell viability / cytotoxicity [4]
CCCCCCCCNCC(O)CCCCCCCCCn1c(=O)c2c(ncn2C)n(C)c1=O (centres unmarked) [CT2576, 1-(11-octylamino-10-hydroxyundecyl)-3,7-dimethylxanthine]	~6.00	did not inhibit TNF-α dependent activation of NFκB	inhibited myrPA formation in stimulated cells	dose response relationship	–
CCCCCCCCNCC(O)CCCCCCCCCN1C(=O)CCN(C)C1=O (centres unmarked) [CT1829, 3-(11-octylamino-10-hydroxyundecyl)-1-methyldihydrouracil]	–	–	–	–	minimal cytotoxic effects
